Laboratory results as given in paper PMC9961069 (Metabolites, 2023).
Entries after “also recorded” stand apart in the source; their conditions may differ.

Legend:
[1] = test system: MDA-MB-231 cells; assay: LC/MS-based metabolite profiling; format: cell-based, Human; conditions: 24 h; for AICAR levels with FA treatment / Orotate levels with FA supplementation: 10 μM + 300 μg/mL FA; for AICAR levels / Orotate levels / UDP level: 10 μM; for AICAR levels / Orotate levels: inhibitor alone; for UDP level: inhibitor alone versus DMSO
Method: For characterization by mass spectrometry, MDA-MB-231 cells were seeded at a density of 3 × 10^5 cells per well in 6-well plates. […] DMSO only and DMSO + folinic acid controls were also performed. Per condition, biological quadruplicates of approximately one million cells were harvested, washed briefly with 1 mL of 0.9% NaCl (prepared in LC/MS-grade water Fisher Scientific W6500), and extracted in 500 μL prechilled extraction buffer (80% LC/MS-grade methanol, 20% 125 mM ammonium acetate, 12.5 mM sodium ascorbate prepared in LC/MS-grade water and supplemented with aminopterin (catalog no.: 16.330; Schircks Laboratories) and isotopically labeled internal standards (17 amino acids and reduced glutathione [Cambridge Isotope Laboratories; MSK- A2-1.2 and CNLM-6245-10])) using a cell scraper. After centrifugation for 10 min, 4 °C, at maximum speed on a benchtop centrifuge (Eppendorf), the cleared supernatant was transferred to a new tube and dried using a nitrogen dryer (Reacti-Vap™ Evaporator, Thermo Fisher Scientific, TS-18826) while on ice. Once the drying process was completed, samples were reconstituted in 50 µL QReSS water (Cambridge Isotope Laboratories, MSK-QRESS-KIT) by brief sonication in a 4 °C water bath. Extracted metabolites were spun for 3 min, 4 °C, at maximum speed on a bench-top centrifuge, and cleared supernatant was transferred to LC/MS microvials (National Scientific, C5000-45B). Three microliters of each sample were pooled and serially diluted 3- and 10-fold to be used as quality controls throughout the run of each batch. Unlabeled QReSS metabolites (Cambridge Isotope Laboratories, MSK-QReSS-US-KIT) and unlabeled amino acid mix standard (Cambridge Isotope Laboratories, MSK-A2-US-1.2) were also included in the run to ensure high-quality metabolomics results.
One microliter (equivalent to 2 × 10^4 cells) of the reconstituted sample was injected into a ZIC-pHILIC 150 × 2.1 mm (5 µm particle size) column (EMD Millipore) operated on a Vanquish™ Flex UHPLC Systems (Thermo Fisher Scientific, San Jose, CA, USA). Chromatographic separation was achieved using the following conditions: buffer A was acetonitrile; buffer B was 20 mM ammonium carbonate, 0.1% ammonium hydroxide. Gradient conditions were: linear gradient from 20% to 80% B; 20–20.5 min: from 80% to 20% B; 20.5–28 min: hold at 20% B. The column oven and autosampler tray were held at 25 °C and 4 °C, respectively.
Mass spectrometry data acquisition was performed using a QExactive benchtop orbitrap mass spectrometer equipped with an Ion Max source and a HESI II probe (Thermo Fisher Scientific, San Jose, CA, USA) and was performed in positive and negative ionization mode in a range of m/z = 70–1000, with the resolution set at 70,000, the AGC target at 1 × 10^6, and the maximum injection time (Max IT) at 20 msec. For nucleotide tSIM scans, the resolution was set at 70,000, the AGC target was 1 × 10^5, and the max IT was 100 msec.
Manual curation and integration of chromatographic peaks were performed with TraceFinder 4.1 (Thermo Fisher Scientific, Waltham, MA, USA) using a 5 ppm mass tolerance and referencing an in-house library of chemical standards. Data from TraceFinder were further consolidated and normalized with an in-house R script: (https://github.com/FrozenGas/KanarekLabTraceFinderRScripts/blob/main/MS_data_script_v2.4_20221018.R (accessed on 22 November 2022)). Briefly, this script performs normalization and quality control steps: (1) extracts and combines the peak areas from TraceFinder output .csvs; (2) calculates and normalizes to an averaged factor from all mean-centered chromatographic peak areas of isotopically labeled amino acids internal standards within each sample; (3) filters out low-quality metabolites based on user inputted cut-offs calculated from pool reinjections and pool dilutions; (4) calculates and normalizes for biological material amounts based on the total integrated peak area values of high-confidence metabolites. […]

[2] = test system: T1, DHFR in MDA-MB-468 cells; assay: DHFR accumulation assay (Western blot); format: cell-based, Human; conditions: for Fold increase in DHFR levels: 24 h
T1 construct: reactions containing 55 μg MDA-MB-468 lysate; endogenous in cells; host or cells: MDA-MB-468
Method: Trypsinized MDA-MB-468 cells were seeded into 6-well plates at a density of 300,000 cells per 2 mL of media and allowed to adhere for 24 h. […] The final concentration of DMSO in each well was 1%. A DMSO-only control was also performed on each individual plate. Cells were then trypsinized, harvested by centrifugation at 200× g for 5 min at 4 °C, and washed once with PBS/PIC. Cell pellets were flash frozen using an ethanol/dry ice bath and stored at −80 °C prior to lysis. Each cell pellet was lysed as described above using 50 μL PBS/PIC per cell pellet. Samples were then analyzed by Western blot, as described below, using 30 μg lysate per lane. Band intensities of DHFR were normalized to the loading control SOD1 via densitometry using ImageJ (Fiji), and each DHFR band was normalized to the DMSO control. Fold-change in DHFR band intensity was plotted against inhibitor concentration (μM). Each experiment was performed two separate times as individual biological replicates (n = 2).
Proteins were electrophoretically separated on a 10% gel, and proteins were transferred to a methanol-activated PVDF membrane using the Trans-Blot Turbo transfer system (Bio-Rad) for 7 min at 1.3 A and 25 V in Trans-Blot Turbo transfer buffer (Bio-Rad). Membranes were blocked with 5% skim milk w/v in TBS-T (20 mM Tris, 150 mM NaCl, 0.05% Tween-20) for 1 h at room temperature. […] The horseradish peroxidase (HRP)-linked anti-mouse IgG secondary antibody (NA931, Cytiva; 1:3000) was added for 1 h at room temperature in 5% skim milk w/v in TBS-T. Signal was detected by adding Immobilon Forte Western HRP Substrate (Millipore), and chemiluminescence was captured on a Sapphire Biomolecular Imager (Azure Biosystems). Band densities were determined using ImageJ (Fiji). The band intensity of DHFR was normalized to the thermostable loading control SOD1 [22].

[3] = test system: STAT3 transcriptional activity in U3A STAT3 luciferase reporter cell line; assay: STAT3 luciferase reporter assay; format: cell-based; conditions: for Inhibition of STAT3-dependent luciferase activity: 0.02–20 μM, OSM 10 ng/mL
Method: The STAT3-dependent luciferase reporter assay was performed as previously reported. One day prior to the assay, the U3A STAT3 luciferase reporter cell line was seeded in a 96-well plate at 8000 cells per well. Cells were then incubated with compounds at the indicated concentration, and each well was treated with either media control or stimulated with 10 ng/mL oncostatin M (OSM) and incubated for six hours at 37 °C. Luciferase activity was quantified using the Bright-Glo Luciferase Assay system (Promega) and a Luminoskan Ascent Luminometer (Labsystems). Collected luminescence readings were normalized to DMSO-treated controls. Stimulation with (+OSM) gave luminescence values around 2.5 times that of the unstimulated control (−OSM). Quadruplicates were averaged and plotted with error bars representing standard deviation. Each condition was performed in quadruplicate on two separate occasions (n = 2) with representative data shown. Statistical significance was determined using Ordinary one-way ANOVA with a Dunnett multiple comparison test.

**Q.** Which “AICAR levels with FA treatment” value [1] does the source give for `CCc1nc(N)nc(N)c1-c1ccc(Cl)cc1` [Pyr, Pyrimethamine] here?
**A.** returned AICAR to the same levels as vehicle controls

**Q.** What about the “Orotate levels with FA supplementation” value [1] of the same molecule?
**A.** returned orotate to vehicle control levels

**Q.** What about the “AICAR levels” value [1] of the same molecule?
**A.** much larger increases in AICAR

**Q.** What about the “Orotate levels” value [1] of the same molecule?
**A.** decreased or statistically insignificant changes in orotate levels

**Q.** And the “UDP level” value [1]?
**A.** significantly depleted

**Q.** And the “DHFR accumulation” value ([2]; MDA-MB-468, 24 h)?
**A.** required higher concentrations to induce DHFR accumulation

**Q.** What about the “Inhibition of STAT3-dependent luciferase activity” value (from here on “Inhibition”) [3] of the same molecule?
**A.** do not reach full STAT3 inhibition until µM concentrations

**Q.** `CC1(C)N=C(N)N=C(N)N1c1ccc(Cl)cc1` [Cyc, Cycloguanil] was tested. Which “AICAR levels with FA treatment” value [1] did it give?
**A.** returned AICAR to the same levels as vehicle controls

**Q.** And the “Orotate levels with FA supplementation” value [1]?
**A.** returned orotate to vehicle control levels

**Q.** And the “AICAR levels” value [1]?
**A.** much larger increases in AICAR

**Q.** And the “Orotate levels” value [1]?
**A.** decreased or statistically insignificant changes in orotate levels

**Q.** And the “UDP level” value [1]?
**A.** significantly depleted

**Q.** And the “DHFR accumulation” value ([2]; MDA-MB-468, 24 h)?
**A.** required higher concentrations to induce DHFR accumulation; also recorded: failed to induce DHFR accumulation at low nM concentrations

**Q.** What about the “STAT3-dependent luciferase activity” value ([3]; 20 nM, U3A) of the same molecule?
**A.** significantly inhibited

**Q.** And the “Inhibition” value [3]?
**A.** potent inhibition of luciferase activity

**Q.** For `CC1(C)N=C(N)N=C(N)N1c1ccc(CCCCc2ccc(S(=O)(=O)F)cc2)c(Cl)c1` [compound 127159], which “AICAR levels with FA treatment” value [1] is on record?
**A.** further increased AICAR

**Q.** And the “Orotate levels with FA supplementation” value [1]?
**A.** orotate remained elevated in the presence of FA

**Q.** And the “AICAR levels” value [1]?
**A.** increased slightly, yet significantly

**Q.** What about the “Orotate levels” value [1] of the same molecule?
**A.** stark increase in orotate levels

**Q.** And the “UDP level” value [1]?
**A.** not upon treatment with MTX and 127159 alone

**Q.** What about the “Fold increase in DHFR levels” value ([2]; MDA-MB-468, 10 nM) of the same molecule?
**A.** 10 fold

**Q.** What about the “Fold increase in DHFR levels” value ([2]; MDA-MB-468, 1 µM) of the same molecule?
**A.** 30 fold

**Q.** What about the “Concentration giving notable accumulation of DHFR” value ([2]; MDA-MB-468, 24 h, range 0.012–1 nM) of the same molecule?
**A.** 0.33 nM

**Q.** What about the “Inhibition” value [3] of the same molecule?
**A.** do not reach full STAT3 inhibition until µM concentrations
